{
  "source": "ChEMBL document CHEMBL1156529",
  "about": "“Unraveling the hidden catalytic activity of vertebrate class IIa histone deacetylases” (Proc Natl Acad Sci U S A, 2007)",
  "key": {"Histone deacetylase 4 [1]": {"biological_target": "T1, Histone deacetylase 4 (Homo sapiens, UniProt P56524)", "T1 sequence (P56524 whole entry, the tested form may be a part)": "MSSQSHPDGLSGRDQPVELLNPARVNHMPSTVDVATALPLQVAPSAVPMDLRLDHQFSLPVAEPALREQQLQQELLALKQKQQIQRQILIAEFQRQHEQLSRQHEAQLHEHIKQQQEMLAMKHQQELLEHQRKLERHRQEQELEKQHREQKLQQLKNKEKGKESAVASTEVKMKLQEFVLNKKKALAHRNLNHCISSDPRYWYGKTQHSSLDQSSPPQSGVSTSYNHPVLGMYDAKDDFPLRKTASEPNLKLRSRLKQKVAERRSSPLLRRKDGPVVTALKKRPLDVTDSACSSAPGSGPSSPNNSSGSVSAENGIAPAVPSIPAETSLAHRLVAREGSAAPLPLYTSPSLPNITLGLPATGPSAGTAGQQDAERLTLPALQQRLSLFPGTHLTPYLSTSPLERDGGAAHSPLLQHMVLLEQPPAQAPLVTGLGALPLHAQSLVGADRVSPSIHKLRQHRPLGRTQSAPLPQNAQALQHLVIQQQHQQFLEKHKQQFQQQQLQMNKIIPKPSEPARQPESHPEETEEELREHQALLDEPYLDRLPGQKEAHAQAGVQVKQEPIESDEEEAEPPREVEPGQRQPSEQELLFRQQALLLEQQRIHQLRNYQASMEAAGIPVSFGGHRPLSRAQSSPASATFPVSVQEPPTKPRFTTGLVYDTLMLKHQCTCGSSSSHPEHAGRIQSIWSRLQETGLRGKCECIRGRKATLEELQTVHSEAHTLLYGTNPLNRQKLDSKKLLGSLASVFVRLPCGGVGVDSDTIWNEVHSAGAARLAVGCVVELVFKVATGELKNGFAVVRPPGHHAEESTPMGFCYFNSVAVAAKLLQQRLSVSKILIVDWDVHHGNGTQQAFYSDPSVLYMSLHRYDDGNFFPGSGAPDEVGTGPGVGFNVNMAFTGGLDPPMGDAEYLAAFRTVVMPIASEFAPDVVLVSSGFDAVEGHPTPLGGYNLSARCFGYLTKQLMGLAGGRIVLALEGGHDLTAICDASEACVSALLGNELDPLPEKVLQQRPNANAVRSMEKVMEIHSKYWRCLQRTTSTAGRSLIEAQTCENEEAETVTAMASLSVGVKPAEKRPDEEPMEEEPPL", "experiment": "Inhibition of HDAC4 catalytic domain expressed in HEK293 cells upto 10,000 nM by Biomol assay", "assay_type": "cell-based"}, "[2]": {"system": "Histone deacetylase 5 (Homo sapiens), Q9UQL6 [H1006Y]", "sequence (Q9UQL6 whole entry H1006Y)": "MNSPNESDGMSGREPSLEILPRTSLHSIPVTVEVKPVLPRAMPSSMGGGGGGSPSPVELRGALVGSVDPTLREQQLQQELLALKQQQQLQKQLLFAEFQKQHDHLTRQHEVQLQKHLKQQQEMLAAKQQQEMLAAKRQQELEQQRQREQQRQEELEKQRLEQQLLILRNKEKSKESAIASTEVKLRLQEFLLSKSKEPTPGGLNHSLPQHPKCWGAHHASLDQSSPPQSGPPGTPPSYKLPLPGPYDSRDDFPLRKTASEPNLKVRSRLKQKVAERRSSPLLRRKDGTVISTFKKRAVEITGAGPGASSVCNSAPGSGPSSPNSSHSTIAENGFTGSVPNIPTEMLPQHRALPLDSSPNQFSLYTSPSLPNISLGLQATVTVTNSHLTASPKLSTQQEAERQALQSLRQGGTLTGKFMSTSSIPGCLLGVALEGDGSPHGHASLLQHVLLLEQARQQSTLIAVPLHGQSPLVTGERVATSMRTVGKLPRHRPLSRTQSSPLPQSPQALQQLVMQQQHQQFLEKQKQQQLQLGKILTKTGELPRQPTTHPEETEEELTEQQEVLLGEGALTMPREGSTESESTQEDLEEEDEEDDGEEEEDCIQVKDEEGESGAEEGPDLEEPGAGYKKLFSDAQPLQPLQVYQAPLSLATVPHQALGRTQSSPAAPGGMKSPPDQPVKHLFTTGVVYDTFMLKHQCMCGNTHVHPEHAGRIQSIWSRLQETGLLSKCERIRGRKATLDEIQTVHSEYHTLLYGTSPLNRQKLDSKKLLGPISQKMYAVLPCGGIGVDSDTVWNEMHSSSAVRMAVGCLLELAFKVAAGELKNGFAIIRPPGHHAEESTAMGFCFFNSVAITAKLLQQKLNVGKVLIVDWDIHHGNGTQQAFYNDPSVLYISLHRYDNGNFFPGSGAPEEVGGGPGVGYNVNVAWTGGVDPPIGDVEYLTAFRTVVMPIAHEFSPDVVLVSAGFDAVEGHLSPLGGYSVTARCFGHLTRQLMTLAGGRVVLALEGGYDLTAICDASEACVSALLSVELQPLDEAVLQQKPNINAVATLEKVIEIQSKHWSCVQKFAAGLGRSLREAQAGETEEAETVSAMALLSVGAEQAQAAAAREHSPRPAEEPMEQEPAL", "experiment": "Inhibition of HDAC5 H1006Y mutant expressed in HEK293 cells", "assay_type": "cell-based"}, "[3]": {"system": "T2, Histone deacetylase 7 (Homo sapiens), Q8WUI4 [H843Y]", "T2 sequence (whole entry)": "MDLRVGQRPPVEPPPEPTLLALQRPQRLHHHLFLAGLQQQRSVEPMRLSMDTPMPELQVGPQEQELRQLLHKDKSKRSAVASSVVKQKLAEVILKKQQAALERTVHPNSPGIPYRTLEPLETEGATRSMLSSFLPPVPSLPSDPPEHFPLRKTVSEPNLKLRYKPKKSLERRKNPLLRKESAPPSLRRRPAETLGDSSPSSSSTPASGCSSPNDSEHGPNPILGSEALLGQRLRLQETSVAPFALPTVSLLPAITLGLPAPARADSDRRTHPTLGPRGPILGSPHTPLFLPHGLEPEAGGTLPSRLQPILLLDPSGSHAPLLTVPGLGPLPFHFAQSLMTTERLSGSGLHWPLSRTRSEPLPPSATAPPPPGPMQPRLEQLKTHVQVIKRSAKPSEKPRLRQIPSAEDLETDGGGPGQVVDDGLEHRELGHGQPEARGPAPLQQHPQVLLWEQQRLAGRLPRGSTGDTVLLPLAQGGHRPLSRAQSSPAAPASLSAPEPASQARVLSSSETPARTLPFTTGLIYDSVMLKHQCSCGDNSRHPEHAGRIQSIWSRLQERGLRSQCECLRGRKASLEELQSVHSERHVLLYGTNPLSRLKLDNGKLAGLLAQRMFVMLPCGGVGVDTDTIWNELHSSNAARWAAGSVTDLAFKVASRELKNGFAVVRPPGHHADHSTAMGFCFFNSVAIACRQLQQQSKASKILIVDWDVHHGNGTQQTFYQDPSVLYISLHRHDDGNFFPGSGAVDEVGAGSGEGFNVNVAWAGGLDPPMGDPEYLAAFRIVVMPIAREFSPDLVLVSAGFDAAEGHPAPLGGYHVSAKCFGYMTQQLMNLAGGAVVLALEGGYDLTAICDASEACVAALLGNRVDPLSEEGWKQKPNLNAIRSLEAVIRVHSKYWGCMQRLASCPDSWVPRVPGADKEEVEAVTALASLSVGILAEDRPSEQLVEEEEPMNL", "experiment": "Inhibition of HDAC7 H843Y mutant expressed in HEK293 cells", "assay_type": "cell-based"}, "Histone deacetylase 4 [4]": {"biological_target": "T1, Histone deacetylase 4", "experiment": "Inhibition of flag-tagged HDAC4 expressed in HEK293 cells upto 10,000 nM by Biomol assay", "assay_type": "cell-based"}, "Histone deacetylase 4 [5]": {"biological_target": "T1, Histone deacetylase 4", "experiment": "Inhibition of flag-tagged HDAC4 by pull-down assay"}, "Histone deacetylase 4 [6]": {"biological_target": "T1, Histone deacetylase 4", "experiment": "Inhibition of flag-tagged HDAC4 by Biomol assay"}},
  "note": "Activity calls are given as the source filed them. The calls are words filed in the database; no cut-off is given here.",
  "data": [
    {"smiles": "CCC(=O)CCCCC[C@@H]1NC(=O)[C@H]2CCCCN2C(=O)[C@H]([C@@H](C)CC)NC(=O)[C@H](Cc2cn(OC)c3ccccc23)NC1=O", "values": [
      {"measurement": "Activity", "setting": "Histone deacetylase 4 [1]", "value": "inactive"},
      {"measurement": "Activity", "setting": "[2]", "value": "inactive"},
      {"measurement": "Activity", "setting": "[3]", "value": "inactive"},
      {"measurement": "Activity", "setting": "Histone deacetylase 4 [4]", "value": "inactive"}
    ]},
    {"smiles": "O=C(/C=C/c1ccc(CN(CCO)CCc2c[nH]c3ccccc23)cc1)NO", "values": [
      {"measurement": "Activity", "setting": "[2]", "value": "Active"},
      {"measurement": "Activity", "setting": "[3]", "value": "Active"}
    ]},
    {"smiles": "CCC(=O)CCCCC[C@H](NC(=O)[C@H]1CCCCN1C(=O)[C@@H](NC(=O)[C@@H](N)Cc1cn(OC)c2ccccc12)[C@H](C)CC)C(=O)O", "values": [
      {"measurement": "Activity", "setting": "Histone deacetylase 4 [1]", "value": "inactive"},
      {"measurement": "Activity", "setting": "Histone deacetylase 4 [4]", "value": "inactive"}
    ]},
    {"smiles": "CCC(=O)CCCCC[C@H](NC(=O)[C@H]1CCCCN1C(=O)[C@@H](NC(=O)[C@@H](N)Cc1cn(OC)c2ccccc12)[C@@H](C)CC)C(=O)O", "values": [
      {"measurement": "IC50", "setting": "Histone deacetylase 4 [5]", "value": 0.152, "unit": "µM"},
      {"measurement": "IC50", "setting": "Histone deacetylase 4 [6]", "value": 0.088, "unit": "µM"}
    ]}
  ]
}
